Source: ChEMBL document CHEMBL1135518 (J Med Chem, 2002)
pIC50, pKi: −log10 of the molar value.

Legend:
[1] = target: T1, 5-hydroxytryptamine receptor 1A (Homo sapiens, UniProt P08908); assay: The binding affinity at the 5-hydroxytryptamine 1A receptor determined using [3H]5-CT
T1 sequence (P08908 whole entry): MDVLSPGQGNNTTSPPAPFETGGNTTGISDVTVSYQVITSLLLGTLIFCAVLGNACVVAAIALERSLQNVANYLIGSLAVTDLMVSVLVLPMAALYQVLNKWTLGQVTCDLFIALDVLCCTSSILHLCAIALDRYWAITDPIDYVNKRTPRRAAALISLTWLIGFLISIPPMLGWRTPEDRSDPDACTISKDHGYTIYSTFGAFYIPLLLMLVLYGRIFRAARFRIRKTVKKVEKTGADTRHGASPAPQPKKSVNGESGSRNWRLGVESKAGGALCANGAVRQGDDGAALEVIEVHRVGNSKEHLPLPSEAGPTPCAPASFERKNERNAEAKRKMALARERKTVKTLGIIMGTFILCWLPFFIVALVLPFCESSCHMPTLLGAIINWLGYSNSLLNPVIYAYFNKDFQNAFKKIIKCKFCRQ

[2] = target: 5-hydroxytryptamine receptor 2A (Rattus norvegicus, UniProt P14842); assay: The binding affinity at 5-hydroxytryptamine 2A receptor was determined using [3H]ketanserin
[3] = target: T2, Serotonin 3 (5-HT3) receptor (Rattus norvegicus, UniProt P35563+Q9JJ16); assay: The binding affinity at 5-hydroxytryptamine 3 receptor was determined using [3H]LY-278584; type: protein-complex assay
T2 sequence (P35563 whole entry): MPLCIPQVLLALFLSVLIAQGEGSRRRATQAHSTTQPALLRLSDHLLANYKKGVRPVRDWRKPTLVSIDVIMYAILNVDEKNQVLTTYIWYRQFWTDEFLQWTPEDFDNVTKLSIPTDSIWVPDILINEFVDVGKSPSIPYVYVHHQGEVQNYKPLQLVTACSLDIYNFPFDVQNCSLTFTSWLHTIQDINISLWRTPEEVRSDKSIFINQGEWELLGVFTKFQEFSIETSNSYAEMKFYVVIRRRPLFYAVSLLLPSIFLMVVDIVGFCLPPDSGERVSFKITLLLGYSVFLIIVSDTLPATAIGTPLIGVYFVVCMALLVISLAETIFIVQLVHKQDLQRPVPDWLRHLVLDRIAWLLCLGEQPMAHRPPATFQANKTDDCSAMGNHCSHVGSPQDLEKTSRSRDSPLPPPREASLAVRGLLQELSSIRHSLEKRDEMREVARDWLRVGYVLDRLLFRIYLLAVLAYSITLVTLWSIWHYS
T2 sequence (Q9JJ16 whole entry): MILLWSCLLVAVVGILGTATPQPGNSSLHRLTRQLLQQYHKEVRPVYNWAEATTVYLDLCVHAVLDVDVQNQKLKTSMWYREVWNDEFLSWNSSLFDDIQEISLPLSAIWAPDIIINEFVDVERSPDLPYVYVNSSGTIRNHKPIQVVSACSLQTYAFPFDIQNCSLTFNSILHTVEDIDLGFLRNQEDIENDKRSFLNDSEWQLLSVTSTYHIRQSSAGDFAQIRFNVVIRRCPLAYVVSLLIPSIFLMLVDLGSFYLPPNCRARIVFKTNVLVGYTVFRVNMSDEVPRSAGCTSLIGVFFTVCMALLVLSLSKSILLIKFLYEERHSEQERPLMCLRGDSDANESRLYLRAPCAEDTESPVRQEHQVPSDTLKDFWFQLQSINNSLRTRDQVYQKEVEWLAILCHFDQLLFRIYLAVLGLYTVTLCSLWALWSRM

D(2) dopamine receptor = D(2) dopamine receptor (Rattus norvegicus, UniProt P61169); assay: The binding affinity at the Dopamine receptor D2 determined using [3H]spiperone
[4] = target: Norepinephrine transporter (Rattus norvegicus, UniProt Q9WTR4); assay: The binding affinity at the Norepinephrine transporter reuptake sites determined using competition binding assay
[5] = target: Sodium-dependent serotonin transporter (Rattus norvegicus, UniProt P31652); assay: The binding affinity at the 5-HT reuptake sites determined using competition binding assay
[6] = target: T3, 5-hydroxytryptamine receptor 2C (Rattus norvegicus, UniProt P08909); assay: The binding affinity at 5-hydroxytryptamine 2C receptor was determined using [3H]mesulergine
T3 sequence (P08909 whole entry): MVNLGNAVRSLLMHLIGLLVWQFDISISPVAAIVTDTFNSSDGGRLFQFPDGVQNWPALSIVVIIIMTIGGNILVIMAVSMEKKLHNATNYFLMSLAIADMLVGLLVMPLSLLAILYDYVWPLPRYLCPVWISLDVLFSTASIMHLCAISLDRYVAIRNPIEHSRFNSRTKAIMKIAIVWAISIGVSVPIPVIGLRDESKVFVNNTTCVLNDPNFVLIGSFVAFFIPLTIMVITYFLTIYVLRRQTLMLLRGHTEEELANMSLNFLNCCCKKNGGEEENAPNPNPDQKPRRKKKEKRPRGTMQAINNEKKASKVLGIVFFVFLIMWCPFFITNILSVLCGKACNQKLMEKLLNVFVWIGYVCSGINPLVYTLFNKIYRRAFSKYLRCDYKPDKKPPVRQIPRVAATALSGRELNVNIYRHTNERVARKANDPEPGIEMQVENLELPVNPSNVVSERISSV

D(3) dopamine receptor = D(3) dopamine receptor (Homo sapiens, UniProt P35462); assay: The binding affinity at the Dopamine receptor D3 determined using [3H]spiperone
Chain of D(3) dopamine receptor (P35462 whole entry): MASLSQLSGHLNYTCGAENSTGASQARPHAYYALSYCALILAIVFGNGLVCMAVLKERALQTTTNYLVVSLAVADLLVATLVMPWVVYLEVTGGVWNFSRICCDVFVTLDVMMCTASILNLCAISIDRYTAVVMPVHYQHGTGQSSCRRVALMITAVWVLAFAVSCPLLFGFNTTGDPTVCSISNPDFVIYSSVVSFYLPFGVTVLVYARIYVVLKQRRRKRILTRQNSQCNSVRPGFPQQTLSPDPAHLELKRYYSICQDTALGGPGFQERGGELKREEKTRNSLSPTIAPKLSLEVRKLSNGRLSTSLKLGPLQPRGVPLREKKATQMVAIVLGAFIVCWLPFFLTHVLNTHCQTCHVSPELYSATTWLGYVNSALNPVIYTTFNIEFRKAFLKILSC

Chain of Sodium-dependent serotonin transporter (P31652 whole entry): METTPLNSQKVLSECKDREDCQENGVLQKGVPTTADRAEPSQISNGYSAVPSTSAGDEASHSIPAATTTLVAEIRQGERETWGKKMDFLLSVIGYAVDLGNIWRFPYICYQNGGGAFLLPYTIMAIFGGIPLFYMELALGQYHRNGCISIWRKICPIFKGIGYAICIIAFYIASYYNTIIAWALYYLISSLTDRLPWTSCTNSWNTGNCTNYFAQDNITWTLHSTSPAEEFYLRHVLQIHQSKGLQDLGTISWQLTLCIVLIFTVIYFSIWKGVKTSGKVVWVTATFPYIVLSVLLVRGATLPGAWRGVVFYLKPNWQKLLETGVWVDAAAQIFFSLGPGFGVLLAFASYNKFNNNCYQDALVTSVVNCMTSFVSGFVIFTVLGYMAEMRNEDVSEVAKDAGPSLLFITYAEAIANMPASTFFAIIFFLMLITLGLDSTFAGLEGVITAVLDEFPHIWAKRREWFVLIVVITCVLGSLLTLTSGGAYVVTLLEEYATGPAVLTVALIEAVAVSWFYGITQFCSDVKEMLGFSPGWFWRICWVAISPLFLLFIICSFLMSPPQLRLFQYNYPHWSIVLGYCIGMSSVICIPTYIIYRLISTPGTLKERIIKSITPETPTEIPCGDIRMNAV
Chain of Norepinephrine transporter (Q9WTR4 whole entry): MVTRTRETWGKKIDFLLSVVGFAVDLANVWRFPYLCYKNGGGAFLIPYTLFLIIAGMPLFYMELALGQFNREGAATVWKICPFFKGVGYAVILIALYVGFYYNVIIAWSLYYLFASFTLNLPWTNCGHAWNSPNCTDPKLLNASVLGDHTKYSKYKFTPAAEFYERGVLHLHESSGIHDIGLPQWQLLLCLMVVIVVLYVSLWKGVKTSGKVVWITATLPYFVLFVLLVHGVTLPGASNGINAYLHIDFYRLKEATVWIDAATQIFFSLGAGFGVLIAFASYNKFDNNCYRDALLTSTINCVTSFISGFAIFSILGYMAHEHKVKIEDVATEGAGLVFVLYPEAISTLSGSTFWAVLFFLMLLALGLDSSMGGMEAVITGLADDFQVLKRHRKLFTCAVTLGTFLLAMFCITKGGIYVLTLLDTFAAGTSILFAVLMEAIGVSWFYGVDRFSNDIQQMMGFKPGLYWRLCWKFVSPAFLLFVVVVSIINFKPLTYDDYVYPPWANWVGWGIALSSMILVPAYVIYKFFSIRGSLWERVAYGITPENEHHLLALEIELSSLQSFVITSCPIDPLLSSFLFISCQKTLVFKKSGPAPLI
Chain of 5-hydroxytryptamine receptor 2A (P14842 whole entry): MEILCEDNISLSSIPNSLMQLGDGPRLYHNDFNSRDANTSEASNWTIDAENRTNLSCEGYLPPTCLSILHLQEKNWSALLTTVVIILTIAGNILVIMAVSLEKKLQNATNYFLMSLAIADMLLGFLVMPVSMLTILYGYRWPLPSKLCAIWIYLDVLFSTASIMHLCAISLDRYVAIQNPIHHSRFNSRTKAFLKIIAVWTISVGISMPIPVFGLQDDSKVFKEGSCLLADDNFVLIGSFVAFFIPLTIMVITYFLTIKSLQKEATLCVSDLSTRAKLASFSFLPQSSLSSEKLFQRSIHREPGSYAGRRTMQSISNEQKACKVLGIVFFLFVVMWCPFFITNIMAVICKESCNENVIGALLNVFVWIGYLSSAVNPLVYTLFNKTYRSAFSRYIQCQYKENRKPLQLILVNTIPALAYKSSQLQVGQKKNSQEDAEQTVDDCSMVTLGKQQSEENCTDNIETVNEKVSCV
Chain of D(2) dopamine receptor (P61169 whole entry): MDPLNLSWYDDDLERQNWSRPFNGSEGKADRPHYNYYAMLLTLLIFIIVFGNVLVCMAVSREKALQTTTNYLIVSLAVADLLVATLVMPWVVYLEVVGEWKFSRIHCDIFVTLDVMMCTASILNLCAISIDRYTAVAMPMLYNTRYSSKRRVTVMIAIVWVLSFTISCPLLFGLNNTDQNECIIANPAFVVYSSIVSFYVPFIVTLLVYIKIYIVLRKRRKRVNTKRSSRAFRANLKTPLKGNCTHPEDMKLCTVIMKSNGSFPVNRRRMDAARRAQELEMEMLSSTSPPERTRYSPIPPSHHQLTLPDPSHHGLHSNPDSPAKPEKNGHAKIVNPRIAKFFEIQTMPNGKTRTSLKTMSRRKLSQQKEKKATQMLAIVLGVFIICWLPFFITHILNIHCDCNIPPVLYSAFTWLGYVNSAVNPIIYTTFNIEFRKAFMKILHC

Work on `COc1cccc2c1N1CCN(C)C[C@@H]1c1ccccc1C2` yielded a pKi [1] of 6.10, a pIC50 [2] of 9.26 and a pKi [3] of under 5.30. It also gave a pKi (D(2) dopamine receptor) of 6.34, a pIC50 [4] of 5.91 and a pIC50 [5] of 5.78. The pKi [6] was 9.80 and the pKi (D(3) dopamine receptor) was 5.45.
`COc1cccc2c1N1CCN(C)C[C@H]1c1ccccc1C2` showed a pKi [1] of 6.59, a pIC50 [2] of 9.12 and a pKi [3] of 5.78. It also gave a pKi (D(2) dopamine receptor) of 7.70, a pIC50 [4] of 5.54 and a pIC50 [5] of under 5.00. The pKi [6] was 9.41 and the pKi (D(3) dopamine receptor) was 7.00.
For `COc1cccc2c1N1CCN(C)CC1c1ccccc1C2` (racemic), the pKi [1] was 6.46, the pIC50 [2] was 9.15 and the pKi [3] was 5.54. The pKi (D(2) dopamine receptor) was 7.55, the pIC50 [4] was 5.75 and the pIC50 [5] was 5.54. For the same molecule, the pKi [6] was 9.68 and the pKi (D(3) dopamine receptor) was 6.59.
